Assay results reported in patent US20110229892A1, “METHOD FOR PREDICTING A PATIENT'S RESPONSIVENESS TO ANTI-FOLATE THERAPY” (priority 2008, published 2011).
Like-named read-outs stand apart in the source and are kept apart here.

Experiments:
CCRF-CEM WT cells = test: Antifolate growth inhibition assay (XTT), parental cells; format: cell-based; settings: Homo sapiens, 72 h, read-out: IC50 growth inhibition
Experimental: (§1) Tissue Culture: The human T-cell lymphocytic leukemia lines CCRF-CEM and Molt-4 as well as their antifolate-resistant sublines CEM-MTX^R5P, CEM-MTX^R10, CEM-7OH MTX and Molt-4-7OH MTX were maintained in RPMI-1640 medium (GIBCO) containing 2.3 μM folic acid supplemented with 10% fetal bovine serum, 2 mM glutamine, 100 units/ml penicillin G and 100 μg/ml streptomycin sulfate (Biological Industries, Beth-Haemek, Israel). The MTX-resistant sublines MTX^R5P and MTX^R10 were established by exposure of parental CCRF-CEM cells to 6 cycles each of 24 hr pulse of 5 or 10 μM MTX, respectively (Sigma) as follows: after an initial 24 hr pulse exposure of parental CCRF-CEM cells to 5 or 10 μM MTX at 37° C., cells were washed once with drug-free growth medium, adjusted to 3×10^5 cells/ml and allowed to grow for 1-2 weeks. Thereafter, a maintenance treatment of 24 hr pulses of MTX was performed once a month. CEM-7OH MTX and Molt-4-7OH MTX were established and maintained as previously described [Fotoohi K, et al., Blood. 2004; 104:4194-4201].
(§2) Antifolate growth inhibition assay: Parental cells and their antifolate-resistant sublines as well as FPGS-transfected cells were first grown in antifolate-free growth medium for 5-7 cell doublings. Thereafter, cells were seeded in 96-well plates (3×10^4/well) in growth medium (100 μl/well) containing various concentrations of the different antifolates (e.g. MTX, ZD1694 and ZD9331). After 3 days of incubation at 37° C., viable cell numbers were determined using the Cell Proliferation Kit (XTT) (Biological Industries). Percent inhibition of cell growth was calculated relative to untreated controls. Results presented are means of at least three independent experiments.

CEM-MTX^R10 cells = test: Antifolate growth inhibition assay (XTT), MTX-resistant subline; format: cell-based; settings: Homo sapiens, 72 h, read-out: IC50 growth inhibition
Experimental: as §1, §2

CEM-MTX^R5P cells = test: as above; format: cell-based, human; settings: for IC50: Homo sapiens, 72 h, read-out: IC50 growth inhibition
Experimental: as §1, §2

[1] = tested on: MTX^R10 cells overexpressing normal FPGS (pcDNA3/hFPGS transfectant); test: Antifolate cytotoxicity in FPGS-transfected cells; format: cell-based, human; settings: MTX^R10 cells transfected with normal FPGS, compared with parental cells
Experimental: as §2
Expression Vectors: pcDNA3/hFPGS harboring the full-length human FPGS cDNA was provided. […]
Stable Transfections with hFPGS Expression Constructs: Exponentially growing cells (i.e. CCRF-CEM and)CEM-MTX^R10) were harvested by centrifugation and stably transfected by electroporation (1000 μF, 234V) with 10 μg of the vectors pcDNA3.1, pIRES2-EGFP, pcDNA3/hFPGS or pIRES/FPGSΔexon10. […] Stable transfectants obtained after 4 weeks of G-418 selection were analyzed for FPGS mRNA levels by Northern blots as detailed below and used for further analyses.

RFC (SLC19A1) = target: T1, RFC (SLC19A1) (Homo sapiens, UniProt P41440); test: [^3H]MTX transport assay; format: cell-based; settings: 2 μM [3H]MTX, 3 min, 37° C.
T1 construct: endogenous in cells; host or cells: CCRF-CEM parental cells and antifolate-resistant sublines (MTX^R5P, CEM/MTX^R10)
T1 sequence (P41440 1-591): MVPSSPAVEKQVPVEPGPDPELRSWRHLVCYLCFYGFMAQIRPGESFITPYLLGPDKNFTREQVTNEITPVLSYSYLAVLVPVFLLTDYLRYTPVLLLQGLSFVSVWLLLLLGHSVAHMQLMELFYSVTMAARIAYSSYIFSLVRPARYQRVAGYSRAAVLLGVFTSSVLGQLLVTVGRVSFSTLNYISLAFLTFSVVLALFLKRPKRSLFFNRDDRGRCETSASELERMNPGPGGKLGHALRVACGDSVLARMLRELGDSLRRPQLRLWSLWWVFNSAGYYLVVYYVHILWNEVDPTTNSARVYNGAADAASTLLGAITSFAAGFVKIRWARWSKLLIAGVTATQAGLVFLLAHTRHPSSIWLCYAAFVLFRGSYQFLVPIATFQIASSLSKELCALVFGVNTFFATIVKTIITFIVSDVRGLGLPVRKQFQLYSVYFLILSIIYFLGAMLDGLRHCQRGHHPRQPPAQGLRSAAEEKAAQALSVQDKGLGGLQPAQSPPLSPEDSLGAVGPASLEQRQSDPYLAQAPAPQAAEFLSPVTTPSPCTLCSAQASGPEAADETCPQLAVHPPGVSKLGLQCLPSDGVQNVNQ
Experimental: [^3H]MTX transport assay: [^3H]MTX influx rates were determined as previously described [Jansen Get al., J Biol Chem. 1990; 265:18272-18277]. Briefly, cells (2×10^7) were washed with ice-cold HBS (20 mM HEPES, 140 mM NaCl, 5 mM KCl, 2 mM MgCl2, and 5 mM glucose, at pH 7.4) and incubated at 37° C. for 3 min in HBS containing 2 μM [3′,5′,7-^3H]-Methotrexate (0.555 TBq/mmol; […]; Moravek Biochemicals, Brea, Calif.). Transport controls contained a 500-fold excess (1 mM) of unlabeled MTX. Transport was stopped by the addition of 10 ml of ice-cold HBS. Then, the cell suspension was centrifuged, washed with ice-cold HBS and suspended in water for scintillation counting.

[2] = MTX^R5P cells vs parental cells
[3] = CCRF-CEM WT, 3 days incubation, XTT
[4] = CEM-MTX^R10, 3 days incubation, XTT
[5] = CEM-MTX^R5P, 3 days incubation, XTT

Row | MTX Influx (RFC (SLC19A1); CCRF-CEM WT (parental reference)) [%] | MTX Influx (RFC (SLC19A1); CEM-MTX^R5P, relative to parental cells) [%] | MTX Influx (RFC (SLC19A1); CEM-MTX^R5P, relative to parental cells, listed as [^3H]MTX) [%] | MTX Influx (RFC (SLC19A1); CEM-MTX^R10, relative to parental cells) | SMILES | IC50 (CCRF-CEM WT cells; CCRF-CEM) [nM] | IC50 (CEM-MTX^R10 cells) [nM] | IC50 (CEM-MTX^R5P cells) [nM] | increased sensitivity relative to parental cells (CEM-MTX^R5P cells; [2]) [fold] | sensitivity after ectopic overexpression of normal FPGS [1] | IC50 (CCRF-CEM WT cells; [3]) [nM] | IC50 (CEM-MTX^R10 cells; [4]) [nM] | IC50 (CEM-MTX^R5P cells; [5]) [nM] | resistance relative to parental CCRF-CEM cells (CEM-MTX^R5P cells; [2])
1 |  |  |  |  | C#CCN(Cc1cc2c(=O)[nH]c(C)nc2cc1C)c1ccc(C(=O)N[C@@H](CCc2nnn[nH]2)C(=O)O)c(F)c1 [ZD9331, plevitrexed] | 28.6 ± 2.3 | 40.8 ± 4.1 | 13.9 ± 1.7 | 2 |  |  |  |  | 
2 |  |  |  |  | Cc1nc2ccc(CN(C)c3ccc(C(=O)N[C@@H](CCC(=O)O)C(=O)O)s3)cc2c(=O)[nH]1 [ZD1964, raltitrexed] |  |  |  |  | fully restored parental cell sensitivity | 6.06 ± 0.42 | 110 ± 9.8 | > 300000 | 50,000 fold
3 | 100 | 50 ± 5 | 50 | 91 + 6% | CN(Cc1cnc2nc(N)nc(N)c2n1)c1ccc(C(=O)N[C@@H](CCC(=O)O)C(=O)O)cc1 [MTX, methotrexate] |  |  |  |  |  | 25.7 ± 2.1 | 28.2 ± 2.9 | 23.1 ± 2 | 
